From patent US20220235049A1, “SUBSTITUTED PYRROLO [2, 3-b] PYRIDINE AND PYRAZOLO [3,4-b] PYRIDINE DERIVATIVES AS PROTEIN KINASE INHIBITORS” (Fochon Pharmaceuticals, Ltd., priority 2019, published 2022)

tested on: DOHH2 cells; experiment: Cell proliferation assay in DOHH2 cells (MTS); format: cell-based; conditions: 120 h
Protocol: To investigate whether a compound is able to inhibit the activity of BTK in cells, a mechanism-based assay using DOHH2 (DSMZ catalog #: ACC47) cell was developed. In this assay, inhibition of BTK was detected by the inhibition of DOHH2 cells proliferation. Cells were collected and plated onto 96-well plates at the optimized cell density (5000 cells/well). Plates were incubated at 37° C., with 5% CO2 for 4 h. Compounds were serially diluted and added to the plates with the final concentrations as 10000, 3333.3, 1111.1, 370.4, 123.5, 41.2, 13.7, 4.6 and 1.5 nM. Plates were incubated at 37° C., with 5% CO2 for 120 h. An aliquot of 20 μL MTS/100 μL medium mixture solution were added to each well and the plates were incubated for exactly 2 h. The reaction was stopped by adding 25 μL 10% SDS to each well. The absorbance was measured by a microplate reader at 490 nm and 650 nm (reference wavelength). IC50 was calculated using GraphPad Prism 5.0.
Select compounds prepared as described above were assayed according to the biological procedures described herein.

Going from `CCOc1cnc2[nH]cc(C(=O)c3ccc(Oc4ccccc4)cc3F)c2c1N[C@@]12CO[C@H](CO)C1C2` (single isomer, unassigned) [Example 181] to `COc1cnc2[nH]cc(C(=O)c3ccc(Oc4ccccc4F)cc3F)c2c1N[C@@]12CO[C@H](CO)C1C2` (single isomer, unassigned) [Example 169], the IC50 rises from 1 nM to 65 nM (65-fold).

First: Cc1cc(Oc2ccccc2)ccc1C(=O)c1c[nH]c2ncc(C#N)c(N[C@@]34COC(CO)[C@@H]3C4)c12 (single isomer, unassigned) [Example 19]
Second: CCOc1cnc2[nH]cc(C(=O)c3ccc(Oc4ccccc4)cc3F)c2c1N[C@@]12CO[C@H](CO)C1C2 (single isomer, unassigned) [Example 182]
The IC50 of the first is 2.8-fold higher: 88 nM for the first, 31 nM for the second. The second is the more potent here.

same assay, conditions: Homo sapiens, DOHH-2, 120 h

`O=C(c1ccc(Oc2ccccc2F)cc1Cl)c1c[nH]c2nccc(N[C@@H]3CC[C@@H](CO)OC3)c12` [Example 30, (2-chloro-4-(2-fluorophenoxy)phenyl)(4-(((3R,6S)-6-(hydroxymethyl)tetrahydro-2H-pyran-3-yl)amino)-1H-pyrrolo[2,3-b]pyridin-3-yl)methanone] and `N#Cc1cnc2[nH]cc(C(=O)c3ccc(Oc4ccccc4F)cc3Cl)c2c1N[C@@H]1CC[C@@H](CO)OC1` [Example 32, 3-(2-chloro-4-(2-fluorophenoxy)benzoyl)-4-(((3R,6S)-6-(hydroxymethyl)tetrahydro-2H-pyran-3-yl)amino)-1H-pyrrolo[2,3-b]pyridine-5-carbonitrile] are within 1.5-fold of each other in IC50: 21 nM for the first, 15 nM for the second.

Going from `Cc1cc(Oc2ccccc2F)ccc1C(=O)c1c[nH]c2ncc(C#N)c(N[C@@H]3CC[C@@H](CO)OC3)c12` [Example 48, 3-(4-(2-fluorophenoxy)-2-methylbenzoyl)-4-(((3R,6S)-6-(hydroxymethyl)tetrahydro-2H-pyran-3-yl)amino)-1H-pyrrolo[2,3-b]pyridine-5-carbonitrile] to `N#Cc1cnc2[nH]cc(C(=O)c3ccc(Oc4ccccc4F)cc3F)c2c1N[C@@H]1CC[C@@H](CO)OC1` [Example 90, 3-(2-fluoro-4-(2-fluorophenoxy)benzoyl)-4-(((3R,6S)-6-(hydroxymethyl)tetrahydro-2H-pyran-3-yl)amino)-1H-pyrrolo[2,3-b]pyridine-5-carbonitrile], the IC50 rises from 1 nM to 50 nM (50-fold).

Compared with `COc1cnc2[nH]cc(C(=O)c3ccc(Oc4ncccc4F)cc3F)c2c1N[C@@H]1CC[C@@H](CO)OC1` [Example 195], `COc1cnc2[nH]cc(C(=O)c3ccc(Oc4ccccn4)cc3F)c2c1N[C@@H]1CC[C@@H](CO)OC1` [Example 196, (2-fluoro-4-(pyridin-2-yloxy)phenyl)(4-(((3R,6S)-6-(hydroxymethyl)tetrahydro-2H-pyran-3-yl)amino)-5-methoxy-1H-pyrrolo[2,3-b]pyridin-3-yl)methanone] is 1.9-fold lower in IC50: 83 nM for the first, 44 nM for the second. The second is the more potent here.

Going from `COc1cnc2[nH]cc(C(=O)c3ccc(Oc4c(F)cccc4F)cc3C)c2c1N[C@@H]1CC[C@@H](CO)OC1` [Example 188, (4-(2,6-difluorophenoxy)-2-methylphenyl)(4-(((3R,6S)-6-(hydroxymethyl)tetrahydro-2H-pyran-3-yl)amino)-5-methoxy-1H-pyrrolo[2,3-b]pyridin-3-yl)methanone] to `COc1cnc2[nH]cc(C(=O)c3ccc(Oc4c(F)cccc4F)cc3)c2c1N[C@@H]1CC[C@@H](CO)OC1` [Example 184, (4-(2,6-difluorophenoxy)phenyl)(4-(((3R,6S)-6-(hydroxymethyl)tetrahydro-2H-pyran-3-yl)amino)-5-methoxy-1H-pyrrolo[2,3-b]pyridin-3-yl)methanone], the IC50 falls from 4 nM to 1 nM (4-fold). The second is the more potent here.

Going from `Cc1cc(Oc2ccccc2F)ccc1C(=O)c1c[nH]c2ncc(F)c(N[C@@H]3CC[C@@H](CO)OC3)c12` [Example 126, (5-fluoro-4-(((3R,6S)-6-(hydroxymethyl)tetrahydro-2H-pyran-3-yl)amino)-1H-pyrrolo[2,3-b]pyridin-3-yl)(4-(2-fluorophenoxy)-2-methylphenyl)methanone] to `CCOc1cnc2[nH]cc(C(=O)c3ccc(Oc4ccccc4F)cc3C)c2c1N[C@@H]1CC[C@@H](CO)OC1` [Example 64, (5-ethoxy-4-(((3R,6S)-6-(hydroxymethyl)tetrahydro-2H-pyran-3-yl)amino)-1H-pyrrolo[2,3-b]pyridin-3-yl)(4-(2-fluorophenoxy)-2-methylphenyl)methanone], the IC50 falls from 4 nM to 1 nM (4-fold). The second is the more potent here.

Compared with `Cc1nc(Oc2ccccc2)ccc1C(=O)c1c[nH]c2nccc(N[C@@H]3CC[C@@H](CO)OC3)c12` [Example 41, (4-(((3R,6S)-6-(hydroxymethyl)tetrahydro-2H-pyran-3-yl)amino)-1H-pyrrolo[2,3-b]pyridin-3-yl)(2-methyl-6-phenoxypyridin-3-yl)methanone], `Cc1cc(Oc2ccccc2)ccc1C(=O)c1c[nH]c2nccc(N[C@@H]3CC[C@@H](CO)OC3)c12` [Example 13, (4-(((3R,6S)-6-(hydroxymethyl)tetrahydro-2H-pyran-3-yl)amino)-1H-pyrrolo[2,3-b]pyridin-3-yl)(2-methyl-4-phenoxyphenyl)methanone] is 2.8-fold lower in IC50: 53 nM for the first, 19 nM for the second.

First: COc1cnc2[nH]cc(C(=O)c3ccc(Oc4ccccc4F)cc3F)c2c1N[C@@H]1CC[C@@H](CNS(C)(=O)=O)OC1 [Example 161, N-(((2S,5R)-5-((3-(2-fluoro-4-(2-fluorophenoxy)benzoyl)-5-methoxy-1H-pyrrolo[2,3-b]pyridin-4-yl)amino)tetrahydro-2H-pyran-2-yl)methyl)methanesulfonamide]
Second: O=C(c1ccc(Oc2ccccc2F)cc1F)c1c[nH]c2ncc(Cl)c(N[C@@H]3CC[C@@H](CO)OC3)c12 [Example 99, (5-chloro-4-(((3R,6S)-6-(hydroxymethyl)tetrahydro-2H-pyran-3-yl)amino)-1H-pyrrolo[2,3-b]pyridin-3-yl)(2-fluoro-4-(2-fluorophenoxy)phenyl)methanone]
The IC50 of the first is 1.7-fold lower: 14 nM for the first, 24 nM for the second. The first is the more potent here.

Going from `O=C(c1ccc(Oc2ccccc2F)cc1)c1c[nH]c2ncc(F)c(N[C@@H]3CC[C@@H](CO)OC3)c12` [Example 114, (5-fluoro-4-(((3R,6S)-6-(hydroxymethyl)tetrahydro-2H-pyran-3-yl)amino)-1H-pyrrolo[2,3-b]pyridin-3-yl)(4-(2-fluorophenoxy)phenyl)methanone] to `Cc1cc(Oc2ccccc2)ccc1C(=O)c1c[nH]c2ncc(F)c(N[C@@H]3CC[C@@H](CO)OC3)c12` [Example 15, (5-fluoro-4-(((3R,6S)-6-(hydroxymethyl)tetrahydro-2H-pyran-3-yl)amino)-1H-pyrrolo[2,3-b]pyridin-3-yl)(2-methyl-4-phenoxyphenyl)methanone], the IC50 rises from 12 nM to 85 nM (7.1-fold).

`N#Cc1cnc2[nH]cc(C(=O)c3ccc(Oc4ccccc4)cc3Cl)c2c1N[C@@H]1CC[C@@H](CO)OC1` [Example 7, 3-(2-chloro-4-phenoxybenzoyl)-4-(((3R,6S)-6-(hydroxymethyl)tetrahydro-2H-pyran-3-yl)amino)-1H-pyrrolo[2,3-b]pyridine-5-carbonitrile] and `N#Cc1cnc2[nH]cc(C(=O)c3c(F)cc(Oc4ccccc4)cc3F)c2c1N[C@@H]1CC[C@@H](CO)OC1` [Example 45, 3-(2,6-difluoro-4-phenoxybenzoyl)-4-(((3R,6S)-6-(hydroxymethyl)tetrahydro-2H-pyran-3-yl)amino)-1H-pyrrolo[2,3-b]pyridine-5-carbonitrile] are within 1.5-fold of each other in IC50: 83 nM for the first, 57 nM for the second.

Going from `N#Cc1cnc2[nH]cc(C(=O)c3ccc(Oc4ccccc4)cc3Cl)c2c1N[C@@]12COC(CO)[C@@H]1C2` (single isomer, unassigned) [Example 17] to `CCOc1cnc2[nH]cc(C(=O)c3ccc(Oc4ccccc4F)cc3Cl)c2c1N[C@@H]1CC[C@@H](CO)OC1` [Example 65, (2-chloro-4-(2-fluorophenoxy)phenyl)(5-ethoxy-4-(((3R,6S)-6-(hydroxymethyl)tetrahydro-2H-pyran-3-yl)amino)-1H-pyrrolo[2,3-b]pyridin-3-yl)methanone], the IC50 falls from 43 nM to 1 nM (43-fold). The second is the more potent here.

`Cc1cc(Oc2ccccc2F)cc(F)c1C(=O)c1c[nH]c2nccc(N[C@@H]3CC[C@@H](CO)OC3)c12` [Example 130, (2-fluoro-4-(2-fluorophenoxy)-6-methylphenyl)(4-(((3R,6S)-6-(hydroxymethyl)tetrahydro-2H-pyran-3-yl)amino)-1H-pyrrolo[2,3-b]pyridin-3-yl)methanone] and `Cc1cc(Oc2ccccc2F)ncc1C(=O)c1c[nH]c2nccc(N[C@@H]3CC[C@@H](CO)OC3)c12` [Example 103, (6-(2-fluorophenoxy)-4-methylpyridin-3-yl)(4-(((3R,6S)-6-(hydroxymethyl)tetrahydro-2H-pyran-3-yl)amino)-1H-pyrrolo[2,3-b]pyridin-3-yl)methanone] are within 1.5-fold of each other in IC50: 36 nM for the first, 39 nM for the second.

First: Cc1cc(Oc2cccc(F)c2)ccc1C(=O)c1c[nH]c2nccc(N[C@@H]3CC[C@@H](CO)OC3)c12 [Example 47, (4-(3-fluorophenoxy)-2-methylphenyl)(4-(((3R,6S)-6-(hydroxymethyl)tetrahydro-2H-pyran-3-yl)amino)-1H-pyrrolo[2,3-b]pyridin-3-yl)methanone]
Second: O=C(c1ccc(Oc2ccccc2)c(Cl)c1Cl)c1c[nH]c2nccc(N[C@@H]3CC[C@@H](CO)OC3)c12 [Example 36, (2,3-dichloro-4-phenoxyphenyl)(4-(((3R,6S)-6-(hydroxymethyl)tetrahydro-2H-pyran-3-yl)amino)-1H-pyrrolo[2,3-b]pyridin-3-yl)methanone]
The IC50 of the first is 1.5-fold lower: 46 nM for the first, 69 nM for the second.

Compound `COc1cnc2[nH]cc(C(=O)c3ccc(Oc4ccccc4F)cc3F)c2c1N[C@@H]1CCC(CO)(CO)OC1` [Example 164, (R)-(4-((6,6-bis(hydroxymethyl)tetrahydro-2H-pyran-3-yl)amino)-5-methoxy-1H-pyrrolo[2,3-b]pyridin-3-yl)(2-fluoro-4-(2-fluorophenoxy)phenyl)methanone] has an IC50 of 22 nM.
